Results published in publication PMC9463489 (Journal of Pharmaceutical Analysis, 2022).
Where “and” joins values, the source holds several entries; their conditions need not be identical. Equal entries are not always repeated.

Legend:
[1] = target: T1, human pancreatic lipase (hPL) (Homo sapiens, UniProt P16233); assay: fluorescence-based hPL inhibition assay; type: biochemical; settings: 4-MUO 5 μM, 37 °C, 20 min; for IC50: pIC50, hPL-catalyzed 4-MUO hydrolysis; for pIC50: hPL-catalyzed 4-MUO hydrolysis
T1 sequence (P16233 17-465): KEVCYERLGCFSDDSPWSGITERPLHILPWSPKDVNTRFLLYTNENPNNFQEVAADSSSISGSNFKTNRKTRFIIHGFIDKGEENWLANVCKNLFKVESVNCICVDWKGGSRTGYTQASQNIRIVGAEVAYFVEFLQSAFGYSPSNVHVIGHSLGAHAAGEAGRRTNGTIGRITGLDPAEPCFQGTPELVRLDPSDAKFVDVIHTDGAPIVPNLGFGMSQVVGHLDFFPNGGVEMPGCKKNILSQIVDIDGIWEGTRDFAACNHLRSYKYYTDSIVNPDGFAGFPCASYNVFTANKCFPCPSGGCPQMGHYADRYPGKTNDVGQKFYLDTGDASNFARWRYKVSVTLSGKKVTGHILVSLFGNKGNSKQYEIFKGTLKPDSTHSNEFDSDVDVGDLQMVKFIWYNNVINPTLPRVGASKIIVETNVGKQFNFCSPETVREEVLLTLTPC

[2] = system: α-glucosidase; settings: ref [50], [51], [52]; cited from earlier work
[3] = target: T1, human pancreatic lipase (hPL); assay: inhibition kinetics against hPL-catalyzed 4-MUO hydrolysis; type: biochemical; settings: for Inhibition mode: Lineweaver-Burk and secondary plots

Compound | IC50 [1] | other results
O=C(O[C@@H]1Cc2c(O)cc(O)cc2O[C@@H]1c1ccc(O)c(O)c1)c1cc(O)c(O)c(O)c1 [ECG, epicatechin gallate] | 0.162 µM | inhibitory effects against α-glucosidase [2]: strong inhibitory effects
Oc1cc(O)c2c(c1)O[C@H](c1ccc(O)c(O)c1)[C@H](O)C2 [Epicatechin, epicatechin] | > 100 µM | 
O=C1C[C@@H](c2ccc(O)c(O)c2)Oc2cc(O)cc(O)c21 [Eriodictyol, eriodictyol] | > 100 µM | 
COc1cc(/C=C/C(=O)O)ccc1O [Ferulic acid, ferulic acid] |  | pIC50 [1]: <4
O=c1c(O)c(-c2ccc(O)cc2)oc2cc(O)cc(O)c12 [Kaempferol, kaempferol] | 27.5 µM | 
O=c1cc(-c2ccc(O)c(O)c2)oc2cc(O)cc(O)c12 [Luteolin, luteolin] | 0.776 µM | inhibitory effects against α-glucosidase [2]: strong inhibitory effects
O=c1cc(-c2ccc(O)c(O)c2)oc2cc(O[C@@H]3O[C@H](CO)[C@@H](O)[C@H](O)[C@H]3O)cc(O)c12 [Luteolin-7-O-β-D-glucoside, luteolin-7-O-β-D-glucoside] |  | pIC50 [1]: <4
O=C(OC[C@H]1O[C@@H](OC(=O)c2cc(O)c(O)c(O)c2)[C@H](OC(=O)c2cc(O)c(O)c(O)c2)[C@@H](OC(=O)c2cc(O)c(O)c(O)c2)[C@@H]1OC(=O)c1cc(O)c(O)c(O)c1)c1cc(O)c(O)c(O)c1 [PGG, 1,2,3,4,6-penta-O-galloyl-β-D-glucopyranose] | 0.0257 µM | Inhibition mode [3]: non-competitive; Ki ([3]; inhibition constant (Ki)): 0.012 µM and < 0.1 µM
O=c1c(O)c(-c2ccc(O)c(O)c2)oc2cc(O)cc(O)c12 [Quercetin, quercetin] |  | inhibitory effects against α-glucosidase [2]: strong inhibitory effects
O=c1c(O[C@@H]2O[C@H](CO)[C@@H](O)[C@H](O)[C@H]2O)c(-c2ccc(O)c(O)c2)oc2cc(O)cc(O)c12 [Quercetin-3-O-glucoside, quercetin-3-O-glucoside] | > 100 µM | 
O=C(O)[C@H]1O[C@@H](Oc2c(-c3ccc(O)c(O)c3)oc3cc(O)cc(O)c3c2=O)[C@H](O)[C@@H](O)[C@@H]1O [Quercetin-3-O-glucuronide, quercetin-3-O-glucuronide] |  | pIC50 [1]: <4
C[C@@H]1O[C@@H](Oc2c(-c3ccc(O)c(O)c3)oc3cc(O)cc(O)c3c2=O)[C@H](O)[C@H](O)[C@H]1O [Quercitrin, quercitrin] | > 100 µM | 
C[C@@H]1O[C@@H](Oc2cc(O)c3c(=O)c(O)c(-c4ccc(O)cc4)oc3c2O)[C@H](O)[C@H](O)[C@H]1O [Rhodionin, rhodionin] | > 100 µM | 
O=C(O)/C=C/c1ccc(O)cc1 [p-coumaric acid] | > 100 µM | 
catechin gallate [CG] |  | Inhibition mode [3]: non-competitive
